Assay results: US12139520B2 (priority 2020, dated 2024)
Bridge positions count the residues as written; N and C are the ends. Square brackets hold non-standard residues; d marks the D form. Peptide text beside a SMILES is read from it. Hyp = O=C(O)[C@@H]1C[C@@H](O)CN1; Cit = NC(=O)NCCC[C@H](N)C(=O)O

Tests used:
[1] = target: hAM1 receptor (Homo sapiens, UniProt O60895+Q16602); experiment: cAMP assay for in vitro receptor activation, hAM1-R; assay type: cell-based; conditions: cAMP assay, hAM1 receptor; read-out: hAM1R EC50
Summary of the method: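 Monoclonal stable hAM1-overexpressing cells, thawed from frozen stock; 8000 cells/well in DPBS + 0.05% casein + 0.5 mM IBMX; read-out cAMP.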

[2] = Physical stability of peptide analogues (Thioflavin T fibrillation); assay type: physicochemical; conditions: maximum ThT signal normalized between hAMY maximum and buffer background; 40° C., shaking, four days; pH 7 per table title
Summary of the method: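 Samples are stressed at 40 °C for four days, being shaken at 700 rpm before each 10-min fluorescence reading of 4 μM Thioflavin T. Buffers were pH 4 acetate or pH 7 phosphate. Reported values are smoothed maximum ThT signals as a percentage of the hAMY-to-background range.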

[3] = target: T1, hAMY3 receptor (Homo sapiens, UniProt O60896+P30988); experiment: cAMP assay for in vitro receptor activation, hAMY3-R; assay type: cell-based; conditions: cAMP assay, hAMY3 receptor; read-out: hAMY3R EC50
T1 sequence (P30988 25-474): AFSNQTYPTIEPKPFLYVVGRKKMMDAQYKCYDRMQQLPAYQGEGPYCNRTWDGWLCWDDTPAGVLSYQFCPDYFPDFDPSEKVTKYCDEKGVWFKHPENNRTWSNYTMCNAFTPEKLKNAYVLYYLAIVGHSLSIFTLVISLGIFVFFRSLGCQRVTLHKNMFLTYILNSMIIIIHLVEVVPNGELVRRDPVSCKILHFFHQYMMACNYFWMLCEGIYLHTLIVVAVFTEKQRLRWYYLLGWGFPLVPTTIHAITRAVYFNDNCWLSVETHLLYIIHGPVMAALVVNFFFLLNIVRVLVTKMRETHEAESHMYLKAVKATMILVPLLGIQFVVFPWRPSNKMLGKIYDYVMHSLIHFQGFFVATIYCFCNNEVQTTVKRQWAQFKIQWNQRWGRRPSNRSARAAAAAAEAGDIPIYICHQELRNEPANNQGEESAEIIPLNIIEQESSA
T1 sequence (O60896 24-148 partner): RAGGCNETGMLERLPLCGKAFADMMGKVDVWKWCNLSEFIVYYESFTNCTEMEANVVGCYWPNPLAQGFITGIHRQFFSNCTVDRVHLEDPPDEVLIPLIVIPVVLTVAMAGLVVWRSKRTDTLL
Summary of the method: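 Graded compound concentrations were applied for 30 min at room temperature to stably hAMY3-expressing cells in DPBS, 0.05% casein, 0.5 mM IBMX; cAMP detected by TR-FRET.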

Chain of hAM1 receptor (Q16602 23-461): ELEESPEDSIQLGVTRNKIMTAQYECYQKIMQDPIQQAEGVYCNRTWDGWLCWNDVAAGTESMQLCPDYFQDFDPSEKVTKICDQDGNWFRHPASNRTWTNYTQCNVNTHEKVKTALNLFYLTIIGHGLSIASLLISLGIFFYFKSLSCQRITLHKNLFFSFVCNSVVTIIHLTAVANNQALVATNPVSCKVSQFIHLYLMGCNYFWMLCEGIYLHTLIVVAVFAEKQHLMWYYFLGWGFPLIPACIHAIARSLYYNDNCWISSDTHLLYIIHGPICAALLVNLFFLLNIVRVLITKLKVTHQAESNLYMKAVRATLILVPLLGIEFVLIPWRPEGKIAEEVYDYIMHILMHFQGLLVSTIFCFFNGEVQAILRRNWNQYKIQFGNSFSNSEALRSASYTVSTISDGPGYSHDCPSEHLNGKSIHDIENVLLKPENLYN
Chain of hAM1 receptor (O60895 43-175 partner): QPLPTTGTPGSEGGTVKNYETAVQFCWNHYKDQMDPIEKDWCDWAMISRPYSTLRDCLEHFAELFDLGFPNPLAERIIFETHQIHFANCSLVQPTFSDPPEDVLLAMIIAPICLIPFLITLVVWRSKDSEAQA

EC50 [1]	Max ThT signal (%) [2]	EC50 [3]	Compound
> 5000 nM	34.500%	0.005 nM	CC[C@H](C)[C@H](NC(=O)[C@H](CCC(N)=O)NC(=O)[C@H](Cc1c[nH]cn1)NC(=O)[C@H](C)NC(=O)[C@H](CC(C)C)NC(=O)[C@H](CCCNC(N)=O)NC(=O)[C@H](CCC(N)=O)NC(=O)[C@@H](NC(=O)[C@@H](NC(=O)[C@@H]1CSSC[C@H](NC(=O)CN)C(=O)N[C@@H](CCCNC(=N)N)C(=O)N[C@@H]([C@@H](C)O)C(=O)NCC(=O)N[C@@H]([C@@H](C)O)C(=O)N1)[C@@H](C)O)C(C)C)C(=O)N[C@@H](Cc1ccc(O)cc1)C(=O)N[C@@H](CCC(N)=O)C(=O)N[C@@H](Cc1ccccc1)C(=O)N[C@H](C(=O)N[C@@H](CC(=O)O)C(=O)N[C@@H](CCCCN)C(=O)N[C@@H](CC(=O)O)C(=O)N[C@@H](CCCCN)C(=O)N[C@@H](CC(=O)O)C(=O)N[C@@H](CC(N)=O)C(=O)N[C@H](C(=O)N[C@@H](C)C(=O)N1CCC[C@H]1C(=O)N[C@@H](CCCNC(=N)N)C(=O)N[C@H](C(=O)N[C@@H](CC(N)=O)C(=O)N[C@H](C(=O)NCC(=O)N1CCC[C@H]1C(=O)N[C@@H](CC(N)=O)C(=O)NCC(=O)N[C@@H](Cc1ccc(O)cc1)C(N)=O)C(C)C)[C@@H](C)O)C(C)C)[C@@H](C)O [compound 269] (H-GCRTGTCTVQ[Cit]LAHQIYQFTDKDKDNVAPRTNVGPNGY-NH2; disulfide 2-7; N-terminus assumed)
> 5000 nM	3.600%	0.09 nM	CC(C)C[C@H](NC(=O)[C@H](Cc1c[nH]c2ccccc12)NC(=O)[C@H](CCC(N)=O)NC(=O)[C@@H](NC(=O)[C@@H](NC(=O)[C@@H]1CSSC[C@H](NC(=O)CN)C(=O)N[C@@H](CCCNC(=N)N)C(=O)N[C@@H](Cc2ccccc2)C(=O)NCC(=O)N[C@@H]([C@@H](C)O)C(=O)N1)[C@@H](C)O)C(C)C)C(=O)N[C@@H](C)C(=O)N[C@@H](Cc1c[nH]cn1)C(=O)N[C@@H](Cc1ccccc1)C(=O)N[C@@H](CC(C)C)C(=O)N[C@@H](Cc1ccc(O)cc1)C(=O)N[C@@H](CCC(N)=O)C(=O)N[C@@H](Cc1ccccc1)C(=O)N[C@H](C(=O)N[C@@H](CC(=O)O)C(=O)N[C@@H](CCCCN)C(=O)N[C@@H](CC(=O)O)C(=O)N[C@@H](CCCCN)C(=O)N[C@@H](CC(=O)O)C(=O)N[C@@H](CC(N)=O)C(=O)N[C@H](C(=O)N[C@@H](C)C(=O)N1CCC[C@H]1C(=O)N[C@@H](CCCNC(=N)N)C(=O)N[C@H](C(=O)N[C@@H](CC(N)=O)C(=O)N[C@H](C(=O)NCC(=O)N[C@@H](CO)C(=O)N[C@@H](CC(N)=O)C(=O)N[C@H](C(=O)N[C@@H](Cc1ccc(O)cc1)C(N)=O)[C@@H](C)O)C(C)C)[C@@H](C)O)C(C)C)[C@@H](C)O [compound 327] (H-GCRFGTCTVQWLAHFLYQFTDKDKDNVAPRTNVGSNTY-NH2; disulfide 2-7; N-terminus assumed)
> 5000 nM	11.900%	0.008 nM	CC[C@H](C)[C@H](NC(=O)[C@H](CCC(N)=O)NC(=O)[C@H](Cc1c[nH]cn1)NC(=O)[C@H](C)NC(=O)[C@H](CC(C)C)NC(=O)[C@H](Cc1c[nH]c2ccccc12)NC(=O)[C@H](CCC(N)=O)NC(=O)[C@@H](NC(=O)[C@@H](NC(=O)[C@@H]1CSSC[C@H](NC(=O)[C@@H](N)CCCCN)C(=O)N[C@@H](CC(N)=O)C(=O)N[C@@H]([C@@H](C)O)C(=O)N[C@@H](C)C(=O)N[C@@H]([C@@H](C)O)C(=O)N1)[C@@H](C)O)C(C)C)C(=O)N[C@@H](Cc1ccc(O)cc1)C(=O)N[C@@H](CCC(N)=O)C(=O)N[C@@H](Cc1ccccc1)C(=O)N[C@H](C(=O)N[C@@H](CC(=O)O)C(=O)N[C@@H](CCCCN)C(=O)N[C@@H](CC(=O)O)C(=O)N[C@@H](CCCCN)C(=O)N[C@@H](C)C(=O)N[C@@H](CC(N)=O)C(=O)N[C@H](C(=O)N[C@@H](C)C(=O)N1CCC[C@H]1C(=O)N1CCC[C@H]1C(=O)N[C@H](C(=O)N[C@@H](CC(N)=O)C(=O)N[C@H](C(=O)NCC(=O)N[C@@H](CO)C(=O)N[C@@H](CC(N)=O)C(=O)NCC(=O)N1C[C@H](O)C[C@H]1C(N)=O)C(C)C)[C@@H](C)O)C(C)C)[C@@H](C)O [compound 314] (H-KCNTATCTVQWLAHQIYQFTDKDKANVAPPTNVGSNG[Hyp]-NH2; disulfide 2-7; N-terminus assumed)
